Patent publication US5164406A, “Method for enhancing transdermal penetration and compositions useful therein” (priority 1989, dated 1992)
Counter-ions that a name gives are not always drawn. Like-named read-outs stand apart in the source and are kept apart here.

Method: Polyoxyethylene stearyl ethers, 3 wt. %
Polyoxypropylene fatty alcohol ethers, 3 wt. %
Deionized water, 94 wt. %
Further, in all cases, unless otherwise noted, the tests were carried out at 37° C. and results were compared to penetration data for the same material in the oil/water emulsion base. Moreover, all percentages of composition components recited are, unless otherwise indicated, weight percent (wt. %) and are based upon the total weight of the composition.
The test method is carried out as follows:
A. Prior to testing, rats are routinely acclimated to the laboratory environment for seven days and gross observations are made to ensure good health of the animals to be tested.
B. Female Sprague Dawley rats (190-240 gm) are selected for testing and identified by cage label and ear tag number.
C. Diffusion Cell Preparation.
1. An O-ring is placed on a standard Franz Diffusion Cell. A stir bar is placed in the receptor compartment. Each cell is filled with approximately 4.5 ml sterile physiologic saline (receptor compartments are calibrated to contain 5.0 ml).
2. The jacketed diffusion cells are maintained at 37° C.±1° (or alternatively desired temperature) using an external water bath and a circulating pump.
D. Skin Section Preparation and Mounting
1. Test animals are sacrificed by intraperitoneal injection of 0.4 ml/100 gm. body weight sodium pentobarital (1 gm/ml).
2. The backs are lightly shaved using electric hair clippers.
3. A section of skin, measuring approximately 8 cm long by 7 cm wide, is removed from the back of each rat using a No. 20 scalpel assuring that the skin section is free from subcutaneous fat.
4. A piece of the skin section is mounted over an O-ring on the diffusion cell, epidermal side facing up. The donor compartment is placed on top of the skin section making a complete seal over the skin. A clamp is used to secure the skin section in place.
5. Air bubbles that collect under the skin are removed by inverting the diffusion cell and tapping it gently. The receptor compartment is filled with sterile physiologic saline to 5.0 ml.
E. Application of Test Materials
1. Test and control materials are applied to the skin using s syringe or spatula. The material is spread evenly and completely over the exposed skin surface using the tip of the syringe/spatula.
1. An HPLC carousel is loaded with microvials. Springs and inserts are placed into the microvials.
2. Receptor compartments are sampled at desired time intervals using a microliter (μl) syringe. The sample (approximately 160 μl) is placed into the insert. The microvial is sealed with a plastic cap.
3. When multiple sampling is required, the receptor compartment is replenished with sterile physiologic saline to maintain a 5.0 ml volume.
Samples are analyzed using standard analytical techniques. The presence of test material in the samples is indicative of transdermal penetration.

[1] = 2% TPL in B with 0.5% imidazole derivative, Table 2, average of multiple determinations
[2] = multiple of average control determination of the same study, 2% TPL in B with 0.5% imidazole derivative, Table 2

Molecule: 1-cyanoethyl-2-phenylimidazole [1-CYANOETHYL-2-PHENYL IMIDAZOLE]
- 24 hour penetration of tripelennamine HCl (total micrograms base) [1]: 310 micrograms base
- Increase in penetration relative to control [2]: 2.6

Molecule: Cc1nccn1C [1-2 DIMETHYL IMIDAZOLE, 1,2-dimethylimidazole]
- 24 hour penetration of tripelennamine HCl (total micrograms base): 374 micrograms base
- Increase in penetration relative to control: 4.3

Molecule: CC(C)=CCCC(C)=CCn1ccnc1 [1-(3,7-dimethyl-2,6-octadienyl) imidazole]
- 24 hour penetration of tripelennamine HCl (total micrograms base): 479 micrograms base
- Increase in penetration relative to control: 2.6

Molecule: c1ccc(Cn2ccnc2)cc1 [1-BENZYL IMIDAZOLE]
- 24 hour penetration of tripelennamine HCl (total micrograms base) [1]: 277 micrograms base
- Increase in penetration relative to control [2]: 1.1

Molecule: Cc1nccn1Cc1ccccc1 [1-BENZYL-2-METHYL IMIDAZOLE]
- 24 hour penetration of tripelennamine HCl (total micrograms base): 463 micrograms base
- Increase in penetration relative to control: 1.8

Molecule: CCCCn1ccnc1 [1-BUTYL IMIDAZOLE]
- 24 hour penetration of tripelennamine HCl (total micrograms base): 497 micrograms base
- Increase in penetration relative to control: 2.1

Molecule: CCCCCCCCCCn1ccnc1 [1-DECYL IMIDAZOLE]
- 24 hour penetration of tripelennamine HCl (total micrograms base): 446 micrograms base
- Increase in penetration relative to control: 3.7

Molecule: CCCCCCCCCCCCn1ccnc1 [1-DODECYL IMIDAZOLE]
- 24 hour penetration of tripelennamine HCl (total micrograms base): 479 micrograms base
- Increase in penetration relative to control: 4.0

Molecule: CC(C)n1ccnc1 [1-ISOPROPYL IMIDAZOLE]
- 24 hour penetration of tripelennamine HCl (total micrograms base): 527 micrograms base
- Increase in penetration relative to control: 2.9

Molecule: Cn1ccnc1 [1-METHYL IMIDAZOLE]
- 24 hour penetration of tripelennamine HCl (total micrograms base) [1]: 728 micrograms base
- Increase in penetration relative to control [2]: 3.0

Molecule: c1ccc(-n2ccnc2)cc1 [1-PHENYL IMIDAZOLE]
- 24 hour penetration of tripelennamine HCl (total micrograms base) [1]: 450 micrograms base
- Increase in penetration relative to control [2]: 1.8

Molecule: Cc1ncc[nH]1 [2-METHYL IMIDAZOLE]
- 24 hour penetration of tripelennamine HCl (total micrograms base): 615 micrograms base
- Increase in penetration relative to control: 2.6

Molecule: c1ccc(-c2ncc[nH]2)cc1 [2-PHENYL IMIDAZOLE]
- 24 hour penetration of tripelennamine HCl (total micrograms base) [1]: 435 micrograms base
- Increase in penetration relative to control [2]: 1.7

Molecule: CCCc1ncc[nH]1 [2-PROPYL IMIDAZOLE]
- 24 hour penetration of tripelennamine HCl (total micrograms base): 554 micrograms base
- Increase in penetration relative to control: 2.2

Molecule: CCCCCCCCCCCCCCCCCc1ncc[nH]1 [2-[…]]
- 24 hour penetration of tripelennamine HCl (total micrograms base) [1]: 358 micrograms base
- Increase in penetration relative to control [2]: 1.5

Molecule: Cc1nc[nH]c1CO [4-(HYDROXYMETHYL) 5-METHYL IMIDAZOLE]
- 24 hour penetration of tripelennamine HCl (total micrograms base): 149 micrograms base
- Increase in penetration relative to control: 1.2

Molecule: NNC(=O)c1c[nH]cn1 [4-CARBOXYLIC ACID HYDRAZIDE IMIDAZOLE]
- 24 hour penetration of tripelennamine HCl (total micrograms base) [1]: 143 micrograms base
- Increase in penetration relative to control [2]: 1.7

Molecule: OCc1c[nH]cn1 [4-HYD[…], 4-hydroxymethyl imidazole]
- 24 hour penetration of tripelennamine HCl (total micrograms base) [1]: 224 micrograms base
- Increase in penetration relative to control [2]: 3.2

Molecule: Cc1c[nH]cn1 [4-METHYL IMIDAZOLE]
- 24 hour penetration of tripelennamine HCl (total micrograms base) [1]: 477 micrograms base
- Increase in penetration relative to control [2]: 3.9

Molecule: O=[N+]([O-])c1c[nH]cn1 [4-NITRO IMIDAZOLE]
- 24 hour penetration of tripelennamine HCl (total micrograms base): 142 micrograms base
- Increase in penetration relative to control: 1.2

Molecule: c1ccc(-c2c[nH]cn2)cc1 [4-PHENYL IMIDAZOLE]
- 24 hour penetration of tripelennamine HCl (total micrograms base) [1]: 368 micrograms base
- Increase in penetration relative to control [2]: 3.0

Molecule: CC(=O)Oc1ccccc1C(=O)O [ASA, ASPIRIN, reference compound]
- 24 hour penetration (total micrograms base): 87.5 micrograms base

Molecule: N[C@H](Cc1c[nH]cn1)C(=O)O [D-HISTIDINE, D-histidine]
- 24 hour penetration of tripelennamine HCl (total micrograms base): 197 micrograms base
- Increase in penetration relative to control: 2.8

Molecule: COc1ccc2c(c1)[C@]13CCCC[C@@H]1[C@H](C2)N(C)CC3 [DEX, DEXTRO[…], HBR, reference compound]
- 24 hour penetration (total micrograms base) (B + 2% DEX + 0.5% IPM + 0.5% IMI, Table 3 Study VIII): 360 micrograms base
- 24 hour penetration (total micrograms base) (control: 2% of the drug alone in B, Table 3): 124 micrograms base
- Increase in penetration relative to control (multiple of average control determination, B + 2% DEX + 0.5% IPM + 0.5% IMI, Table 3 Study VIII): 2.9

Molecule: NS(=O)(=O)c1cc2c(cc1Cl)NCNS2(=O)=O [HCTZ, HYDROCHLOROTHIAZIDE, reference compound]
- 24 hour penetration (total micrograms base): 1.7 micrograms base
- Imidazole enhanced the transdermal penetration (fold) (5% HCTZ with 1% imidazole, Table 3 Study IX): five

Molecule: CC(C)Cc1ccc(C(C)C(=O)O)cc1 (stereo not drawn) [IBU, IBUPROFEN, reference compound]
- 24 hour penetration (total micrograms base) (B + 5% drug + 0.5% imidazole (IMI), Table 3): 378.0 micrograms base
- 24 hour penetration (total micrograms base) (control: 5% of the drug alone in B, Table 3): 181.5 micrograms base
- Increase in penetration relative to control (multiple of average control determination, B + 5% drug + 0.5% IMI, Table 3): 2.1

Molecule: CC(C)NCC(O)c1cc(O)cc(O)c1 (stereo not drawn) [MET, METAPROTERENOL SULFATE, reference compound]
- 24 hour penetration (total micrograms base): 47.6 micrograms base

Molecule: Cn1cc[nH]c1=S [METHIMIDAZOLE, methimazole, reference compound]
- 24 hour penetration of tripelennamine HCl (total micrograms base): 301 micrograms base
- Increase in penetration relative to control: 3.5

Molecule: NCCCn1ccnc1 [N-(3-AMINOPROPYL) IMIDAZOLE, N-(3-aminopropyl)imidazole]
- 24 hour penetration of tripelennamine HCl (total micrograms base): 457 micrograms base
- Increase in penetration relative to control: 2.5

Molecule: CCC(=O)n1ccnc1 [N-PROPIONYL IMIDAZOLE]
- 24 hour penetration of tripelennamine HCl (total micrograms base): 453 micrograms base
- Increase in penetration relative to control: 2.5

Molecule: O=C(/C=C/c1ccccc1)n1ccnc1 [N-TRANS-CINNAMOYL]
- 24 hour penetration of tripelennamine HCl (total micrograms base): 153 micrograms base
- Increase in penetration relative to control: 1.8

Molecule: c1ccc2c(CC3=NCCN3)cccc2c1 [NAP, NAPHAZOLINE HCL, reference compound]
- 24 hour penetration (total micrograms base): 161 micrograms base
- Penetration enhanced by imidazole: 480%

Molecule: CNC[C@H](O)c1cccc(O)c1 [PHE, PHENYLEPHRINE HCL, reference compound]
- 24 hour penetration (total micrograms base): 266 micrograms base

Molecule: Cc1ccc(/C(=C\CN2CCCC2)c2ccccn2)cc1 [TRP, TRIPROLIDINE HCL, reference compound]
- 24 hour penetration (total micrograms base): 180 micrograms base
